Source: patent US4745196A, “Orally active phosphonyl hydroxyacyl prolines” (E. R. Squibb & Sons, Inc., priority 1986, dated 1988)
Structures can show the parent of a compound that is named as a salt.

Tested on: angiotensin converting enzyme (ACE)
Assay: in vivo attenuation of angiotensin I pressor response after oral administration in conscious, normotensive rats
Conditions: maximum during three-hour period, mean of at least four rats
Description: The compounds of formula I were tested in vivo in conscious, normotensive rats. Angiotensin I given intravenously increases blood pressure due to conversion to angiotensin II via the angiotensin converting enzyme (ACE). ACE inhibition was reflected by the attenuation of an angiotensin I pressor response after compound administration. The in vivo testing procedure is described in greater detail by Rubin et al., "SQ14,225 (D-3-Mercapto-2-Methylpropanoyl-L-Proline), A Novel Orally Active Inhibitor Of Angiotensin I Converting Enzyme", J. Pharm. Exp. Therap., Vol. 204, p 271-280 (1978).
The inhibition of the angiotensin I pressor response is expressed as the percentage of the response to angiotensin I obtained before the test compound was administered, and was measured at regular intervals during a three-hour period following the administration of the test compound. The maximum percentage inhibition observed during this period is given in the table as a number from 0 to 100 percent. All results are the mean values obtained for testing of each compound in at least four rats. For compounds tested at more than one dose, it can be observed that increased amounts of compound administered lead to increased levels of inhibition.

[1] = oral dose 1.5 (dose unit not given)
[2] = oral dose 5 (dose unit not given)
[3] = oral dose 0.5 (dose unit not given), dilithium salt
[4] = oral dose 1.5 (dose unit not given), dilithium salt
[5] = oral dose 5 (dose unit not given), dilithium salt
[6] = oral dose 15 (dose unit not given)
[7] = oral dose 0.5 (dose unit not given)

SMILES: NCCCC[C@H](OP(=O)(O)CCc1ccccc1)C(=O)N1CCC[C@H]1C(=O)O [Example 1, (S)-1-[6-Amino-2-[[hydroxy(2-phenylethyl)phosphinyl]oxy]-1-oxohexyl]-L-proline, dilithium salt]
- Maximum Percent Inhibition of the angiotensin I pressor response [1]: 50.30%
- Maximum Percent Inhibition of the angiotensin I pressor response [2]: 64.50%

SMILES: NCCCC[C@H](OP(=O)(O)CCCc1ccccc1)C(=O)N1CCC[C@H]1C(=O)O [Example 2, (S)-1-[6-Amino-2-[[hydroxy(3-phenylpropyl)phosphinyl]oxy]-1-oxohexyl]-L-proline]
- Maximum Percent Inhibition of the angiotensin I pressor response [1]: 32.30%
- Maximum Percent Inhibition of the angiotensin I pressor response [2]: 66.70%

SMILES: NCCCC[C@H](OP(=O)(O)CCCCc1ccccc1)C(=O)N1CCC[C@H]1C(=O)O [Example 3, (S)-1-[6-Amino-2-[[hydroxy(4-phenylbutyl)phosphinyl]oxy]-1-oxohexyl]-L-proline, dilithium salt]
- Maximum Percent Inhibition of the angiotensin I pressor response [3]: 20.90%
- Maximum Percent Inhibition of the angiotensin I pressor response [4]: 74.00%
- Maximum Percent Inhibition of the angiotensin I pressor response [5]: 91.00%
- Maximum Percent Inhibition of the angiotensin I pressor response [6]: 97.10%

SMILES: NCCCC[C@H](OP(=O)(O)CCCCc1ccccc1)C(=O)N1CCC[C@H]1C(=O)O [Example 4, (S)-1-[6-Amino-2-[[hydroxy(4-phenylbutyl)phosphinyl]oxy]-1-oxohexyl]-L-proline]
- Maximum Percent Inhibition of the angiotensin I pressor response [7]: 46.60%
- Maximum Percent Inhibition of the angiotensin I pressor response [1]: 69.00%
- Maximum Percent Inhibition of the angiotensin I pressor response [2]: 89.90%

SMILES: NCCCC[C@H](OP(=O)(O)CCCCc1ccc(F)cc1)C(=O)N1CCC[C@H]1C(=O)O [Example 5, (S)-1-[6-Amino-2-[[[4-(4-fluorophenyl)butyl]hydroxyphosphinyl]oxy]-1-oxohexyl]-L-proline]
- Maximum Percent Inhibition of the angiotensin I pressor response [7]: 22.20%
- Maximum Percent Inhibition of the angiotensin I pressor response [1]: 69.00%
- Maximum Percent Inhibition of the angiotensin I pressor response [2]: 80.50%

SMILES: NCCCC[C@H](OP(=O)(O)CCCCCc1ccccc1)C(=O)N1CCC[C@H]1C(=O)O [Example 6, (S)-1-[6-Amino-2-[[hydroxy(5-phenylpentyl)phosphinyl]oxy]-1-oxohexyl]-L-proline]
- Maximum Percent Inhibition of the angiotensin I pressor response [2]: 64.70%

SMILES: CCCCCP(=O)(O)O[C@@H](CCCCN)C(=O)N1CCC[C@H]1C(=O)O [Example 7, 1-[(S)-6-Amino-2-[(hydroxypentylphosphinyl)oxy]-1-oxohexyl]-L-proline]
- Maximum Percent Inhibition of the angiotensin I pressor response [2]: 57.20%

SMILES: CCCCCCP(=O)(O)O[C@@H](CCCCN)C(=O)N1CCC[C@H]1C(=O)O [Example 8, (S)-1-[6-Amino-2-[(hexylhydroxyphosphinyl)oxy]-1-oxohexyl]-L-proline, dilithium salt]
- Maximum Percent Inhibition of the angiotensin I pressor response [3]: 19.70%
- Maximum Percent Inhibition of the angiotensin I pressor response [4]: 72.40%
- Maximum Percent Inhibition of the angiotensin I pressor response [5]: 82.70%
- Maximum Percent Inhibition of the angiotensin I pressor response (oral dose 15 (dose unit not given), dilithium salt): 85.50%

SMILES: CCCCCCP(=O)(O)O[C@@H](CCCCN)C(=O)N1CCC[C@H]1C(=O)O [Example 9, (S)-1-[6-Amino-2-[(hexylhydroxyphosphinyl)oxy]-1-oxohexyl]-L-proline]
- Maximum Percent Inhibition of the angiotensin I pressor response [7]: 17.90%
- Maximum Percent Inhibition of the angiotensin I pressor response [1]: 66.50%
- Maximum Percent Inhibition of the angiotensin I pressor response [2]: 82.10%
- Maximum Percent Inhibition of the angiotensin I pressor response [6]: 90.30%

SMILES: CCCCCCCP(=O)(O)O[C@@H](CCCCN)C(=O)N1CCC[C@H]1C(=O)O [Example 10, 1-[(S)-6-Amino-2-[(heptylhydroxyphosphinyl)oxy]-1-oxohexyl]-L-proline]
- Maximum Percent Inhibition of the angiotensin I pressor response [7]: 45.00%
- Maximum Percent Inhibition of the angiotensin I pressor response [1]: 66.00%
- Maximum Percent Inhibition of the angiotensin I pressor response [2]: 75.00%

SMILES: CCCCCCCCP(=O)(O)O[C@@H](CCCCN)C(=O)N1CCC[C@H]1C(=O)O [Example 12, (S)-1-[6-Amino-2-[(octylhydroxyphosphinyl)oxy]-1-oxohexyl]-L-proline, dilithium salt]
- Maximum Percent Inhibition of the angiotensin I pressor response [7]: 16.80%
- Maximum Percent Inhibition of the angiotensin I pressor response [1]: 51.10%
- Maximum Percent Inhibition of the angiotensin I pressor response [2]: 82.60%
- Maximum Percent Inhibition of the angiotensin I pressor response [6]: 93.60%
